Reference: ChEMBL document CHEMBL3046783, “Synthesis of pyrimidine and condensed pyrimidine derivatives and their evaluation for anti-inflammatory activity” (2012)

tested on: Rattus norvegicus; experiment: Anti-inflammatory activity in Rattus norvegicus albino (rat) assessed as inhibition of carrageenan-induced paw edema at 50 mg/kg, po administered 30 min before carrageenan challenge measured after 1 to 3 hr by plethysmometer analysis; format: functional

Compared with CC1=CC(C)(C)NC(=S)N1Cc1ccncc1, CC1(C)CC(C)(O)N(Cc2ccncc2)C(=S)N1 (stereo not given) is higher in inhibition in vivo at 50 mg/kg: 25% for the first, 27% for the second.

CC1=CC(C)(C)NC(=S)N1CC1CCCO1 (stereo not given) and CC1CC(O)N(CC2CCCO2)C(=S)N1 (stereo not given) are the same in inhibition in vivo at 50 mg/kg: 18% for the first, 18% for the second.

First: CC1=CC(C)(C)NC(=S)N1CCc1c[nH]c2ccccc12
Second: CC1C=CN(CCc2c[nH]c3ccccc23)C(=S)N1 (stereo not given)
The inhibition in vivo at 50 mg/kg of the first is higher: 30% for the first, 25% for the second.

Compared with CC1=CC(C)(C)NC(=S)N1c1cc(C#N)ccc1N, CC1=CC(C)(C)NC(=S)N1c1cc(Br)ccc1N is lower in inhibition in vivo at 50 mg/kg: 32% for the first, 31% for the second.

Going from CC1=CC(C)(C)NC(=S)N1c1cc(C)ccc1O to CC1(C)CC2(C)Nc3ccc(Br)cc3N2C(=S)N1 (stereo not given), the inhibition in vivo at 50 mg/kg falls from 27% to 24%.

First: CC1(C)CC2(C)Nc3ccc(C#N)cc3N2C(=S)N1 (stereo not given)
Second: CC1CC2Nc3ccc(Br)cc3N2C(=S)N1 (stereo not given)
The inhibition in vivo at 50 mg/kg of the first is higher: 39% for the first, 27% for the second.

Going from Cc1cccc2c1N1C(=S)NC(C)CC1N2 (stereo not given) to CC1CC(O)N(Cc2ccncc2)C(=S)N1 (stereo not given), the inhibition in vivo at 50 mg/kg rises from 0% to 30%.

Compared with CC1(C)CC(C)(O)N(CCN2CCCC2)C(=S)N1 (stereo not given), CC1(C)CC(C)(O)N(CCN2CCOCC2)C(=S)N1 (stereo not given) is higher in inhibition in vivo at 50 mg/kg: 8% for the first, 35% for the second.

First: CC1CC(O)N(CCN2CCCC2)C(=S)N1 (stereo not given)
Second: CC1CC(O)N(CCN2CCCCC2)C(=S)N1 (stereo not given)
The inhibition in vivo at 50 mg/kg of the first is higher: 30% for the first, 29% for the second.

Going from CC1CC(O)N(CCN2CCOCC2)C(=S)N1 (stereo not given) to CC(C)Cc1ccc(C(C)C(=O)O)cc1 (stereo not given) [IBUPROFEN], the inhibition in vivo at 50 mg/kg rises from 38% to 39%.
